This passage reports IC50 and viability, T/C results from PubChem BioAssay AID1963961 (Molecular Pharmacology Branch, DTP, NCI, 2024).

“And” between values parts separate entries of the source, which are not always exact repeats. Equal entries are not always repeated.

This assay concerns K98450-129-R-PDC multicell spheroids, viability. Briefly: Anticancer human tumor K98450-129-R-PDC patient-derived colon adenocarcinoma cell line growth inhibition [PI3K]. The conditions noted are these: for viability, T/C: stronger effect = lower value. An outline of the steps: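 Viability of mixed-cell spheroids was determined after exposure to pairwise combinations, one partner being inavolisib, alpelisib, duvelisib or copanlisib. Highest tested concentration matched clinical Cmax where known and 10 microM where not, descending in half-log steps.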

The mark [1] stands for this setting: curve of first compound, second compound 0.0316 µM.
The mark [2] stands for this setting: curve of first compound, second compound 0.1 µM.
Setting [3] is: curve of first compound, second compound 0.316 µM.
The mark [4] stands for this setting: curve of first compound, second compound 1 µM.
Where [5] appears, read: curve of first compound, second compound 3.16 µM.
[6] abbreviates: curve of first compound, second compound 10 µM.
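Also: spheroids exposed to agents for seven days before read-out.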

Consider `Cn1ncnc1[C@H]1c2n[nH]c(=O)c3cc(F)cc(c23)N[C@@H]1c1ccc(F)cc1` + Cc1nc(NC(=O)N2CCCC2C(N)=O)sc1-c1ccnc(C(C)(C)C(F)(F)F)c1, for which the IC50 runs as follows: under setting [1], greater than 100 nM; under setting [2], greater than 100 nM; under setting [3], greater than 100 nM; under setting [4], greater than 100 nM; under setting [5], greater than 100 nM; under setting [6], greater than 100 nM. The viability, T/C was 110% (second compound 0.0316 µM, first compound 0.000316 µM); 108% (second compound 0.0316 µM, first compound 0.001 µM); 109% (second compound 0.0316 µM, first compound 0.00316 µM); 97.3% (second compound 0.0316 µM, first compound 0.01 µM); 101% (second compound 0.0316 µM, first compound 0.0316 µM); 96.3% (second compound 0.0316 µM, first compound 0.1 µM). Also, the viability, T/C was 108% (second compound 0.1 µM, first compound 0.000316 µM); 99.2% (second compound 0.1 µM, first compound 0.001 µM); 106% (second compound 0.1 µM, first compound 0.00316 µM); 100% (second compound 0.1 µM, first compound 0.01 µM); 102% (second compound 0.1 µM, first compound 0.0316 µM); 97.6% (second compound 0.1 µM, first compound 0.1 µM). The viability, T/C is, setting by setting: (second compound 0.316 µM, first compound 0.000316 µM) 96.5%; (second compound 0.316 µM, first compound 0.001 µM) 99%; (second compound 0.316 µM, first compound 0.00316 µM) 99.9%; (second compound 0.316 µM, first compound 0.01 µM) 97.8%; (second compound 0.316 µM, first compound 0.0316 µM) 104%; (second compound 0.316 µM, first compound 0.1 µM) 87.3%. Further, the viability, T/C is 89.4% (second compound 1 µM, first compound 0.000316 µM); 98.1% (second compound 1 µM, first compound 0.001 µM); 95.2% (second compound 1 µM, first compound 0.00316 µM); 90.7% (second compound 1 µM, first compound 0.01 µM); 101% (second compound 1 µM, first compound 0.0316 µM); 91.9% (second compound 1 µM, first compound 0.1 µM). Further, the viability, T/C runs as follows: (second compound 3.16 µM, first compound 0.000316 µM) 85%; (second compound 3.16 µM, first compound 0.001 µM) 89.4%; (second compound 3.16 µM, first compound 0.00316 µM) 86.9%; (second compound 3.16 µM, first compound 0.01 µM) 86%; (second compound 3.16 µM, first compound 0.0316 µM) 91.6%; (second compound 3.16 µM, first compound 0.1 µM) 80.3%. The viability, T/C by setting is: (second compound 10 µM, first compound 0.000316 µM) 72.4%; (second compound 10 µM, first compound 0.001 µM) 73.1%; (second compound 10 µM, first compound 0.00316 µM) 75.7%; (second compound 10 µM, first compound 0.01 µM) 71.5%; (second compound 10 µM, first compound 0.0316 µM) 74.8%; (second compound 10 µM, first compound 0.1 µM) 70.2%.

For the compound `CC1(C)CCC(CN2CCN(c3ccc(C(=O)NS(=O)(=O)c4ccc(NCC5CCOCC5)c([N+](=O)[O-])c4)c(Oc4cnc5[nH]ccc5c4)c3)CC2)=C(c2ccc(Cl)cc2)C1`, the viability, T/C was 105% [middle of 4 runs] (compound 0.0316 µM); 106% and 102% (2×) and 85.6% (compound 0.1 µM); 107% [middle of 4 runs] (compound 0.316 µM); 104% [middle of 4 runs] (compound 1 µM); 94.5% [middle of 4 runs] (compound 3.16 µM).

Take `Cn1ncc(Cl)c1-c1cc(C(=O)NC(CN)Cc2cccc(F)c2)sc1Cl` (stereo not given): the viability, T/C (compound 0.0316 µM) is 108% [middle of 4 runs]; the viability, T/C (compound 0.1 µM) is 98.9% and 101% (2×) and 95.5%; the viability, T/C (compound 0.316 µM) is 107% [middle of 4 runs]; the viability, T/C (compound 1 µM) was 98.2% [middle of 4 runs]; the viability, T/C (compound 3.16 µM) is 92.7% [middle of 4 runs]. The IC50 (curve of compound) is greater than 10000 nM.

As for `Cn1cnc2c(F)c(Nc3ccc(Br)cc3Cl)c(C(=O)NOCCO)cc21` + Cc1nc(NC(=O)N2CCCC2C(N)=O)sc1-c1ccnc(C(C)(C)C(F)(F)F)c1, the IC50 turned out to be 1260 nM under setting [1]; 1030 nM under setting [2]; 998 nM under setting [3]; 694 nM under setting [4]; 434 nM under setting [5]; 165 nM under setting [6]. Besides, the viability, T/C reads like this: (second compound 0.0316 µM, first compound 0.00949 µM) 95.2%; (second compound 0.0316 µM, first compound 0.03 µM) 87.1%; (second compound 0.0316 µM, first compound 0.0949 µM) 91.9%; (second compound 0.0316 µM, first compound 0.3 µM) 78.3%; (second compound 0.0316 µM, first compound 0.949 µM) 61.2%; (second compound 0.0316 µM, first compound 3 µM) 17.2%. Further, the viability, T/C by setting is: (second compound 0.1 µM, first compound 0.00949 µM) 107%; (second compound 0.1 µM, first compound 0.03 µM) 89.1%; (second compound 0.1 µM, first compound 0.0949 µM) 84.7%; (second compound 0.1 µM, first compound 0.3 µM) 77%; (second compound 0.1 µM, first compound 0.949 µM) 54.3%; (second compound 0.1 µM, first compound 3 µM) 15.6%. Further, the viability, T/C was 89% (second compound 0.316 µM, first compound 0.00949 µM); 89.2% (second compound 0.316 µM, first compound 0.03 µM); 79.1% (second compound 0.316 µM, first compound 0.0949 µM); 71.2% (second compound 0.316 µM, first compound 0.3 µM); 53.5% (second compound 0.316 µM, first compound 0.949 µM); 11.2% (second compound 0.316 µM, first compound 3 µM). In addition, the viability, T/C is 85.3% (second compound 1 µM, first compound 0.00949 µM); 82.4% (second compound 1 µM, first compound 0.03 µM); 78.9% (second compound 1 µM, first compound 0.0949 µM); 67.2% (second compound 1 µM, first compound 0.3 µM); 43.5% (second compound 1 µM, first compound 0.949 µM); 8.14% (second compound 1 µM, first compound 3 µM). Moreover, the viability, T/C was 76.8% (second compound 3.16 µM, first compound 0.00949 µM); 74.1% (second compound 3.16 µM, first compound 0.03 µM); 71.3% (second compound 3.16 µM, first compound 0.0949 µM); 58.5% (second compound 3.16 µM, first compound 0.3 µM); 32.1% (second compound 3.16 µM, first compound 0.949 µM); 4.89% (second compound 3.16 µM, first compound 3 µM). Moreover, the viability, T/C by setting is: (second compound 10 µM, first compound 0.00949 µM) 63.1%; (second compound 10 µM, first compound 0.03 µM) 61.1%; (second compound 10 µM, first compound 0.0949 µM) 60.3%; (second compound 10 µM, first compound 0.3 µM) 39.4%; (second compound 10 µM, first compound 0.949 µM) 10.3%; (second compound 10 µM, first compound 3 µM) 2.85%.
